The target in one data set is T1, ASK1/MAP3K5 (Homo sapiens, UniProt Q99683).
T1 sequence (Q99683 1-1374): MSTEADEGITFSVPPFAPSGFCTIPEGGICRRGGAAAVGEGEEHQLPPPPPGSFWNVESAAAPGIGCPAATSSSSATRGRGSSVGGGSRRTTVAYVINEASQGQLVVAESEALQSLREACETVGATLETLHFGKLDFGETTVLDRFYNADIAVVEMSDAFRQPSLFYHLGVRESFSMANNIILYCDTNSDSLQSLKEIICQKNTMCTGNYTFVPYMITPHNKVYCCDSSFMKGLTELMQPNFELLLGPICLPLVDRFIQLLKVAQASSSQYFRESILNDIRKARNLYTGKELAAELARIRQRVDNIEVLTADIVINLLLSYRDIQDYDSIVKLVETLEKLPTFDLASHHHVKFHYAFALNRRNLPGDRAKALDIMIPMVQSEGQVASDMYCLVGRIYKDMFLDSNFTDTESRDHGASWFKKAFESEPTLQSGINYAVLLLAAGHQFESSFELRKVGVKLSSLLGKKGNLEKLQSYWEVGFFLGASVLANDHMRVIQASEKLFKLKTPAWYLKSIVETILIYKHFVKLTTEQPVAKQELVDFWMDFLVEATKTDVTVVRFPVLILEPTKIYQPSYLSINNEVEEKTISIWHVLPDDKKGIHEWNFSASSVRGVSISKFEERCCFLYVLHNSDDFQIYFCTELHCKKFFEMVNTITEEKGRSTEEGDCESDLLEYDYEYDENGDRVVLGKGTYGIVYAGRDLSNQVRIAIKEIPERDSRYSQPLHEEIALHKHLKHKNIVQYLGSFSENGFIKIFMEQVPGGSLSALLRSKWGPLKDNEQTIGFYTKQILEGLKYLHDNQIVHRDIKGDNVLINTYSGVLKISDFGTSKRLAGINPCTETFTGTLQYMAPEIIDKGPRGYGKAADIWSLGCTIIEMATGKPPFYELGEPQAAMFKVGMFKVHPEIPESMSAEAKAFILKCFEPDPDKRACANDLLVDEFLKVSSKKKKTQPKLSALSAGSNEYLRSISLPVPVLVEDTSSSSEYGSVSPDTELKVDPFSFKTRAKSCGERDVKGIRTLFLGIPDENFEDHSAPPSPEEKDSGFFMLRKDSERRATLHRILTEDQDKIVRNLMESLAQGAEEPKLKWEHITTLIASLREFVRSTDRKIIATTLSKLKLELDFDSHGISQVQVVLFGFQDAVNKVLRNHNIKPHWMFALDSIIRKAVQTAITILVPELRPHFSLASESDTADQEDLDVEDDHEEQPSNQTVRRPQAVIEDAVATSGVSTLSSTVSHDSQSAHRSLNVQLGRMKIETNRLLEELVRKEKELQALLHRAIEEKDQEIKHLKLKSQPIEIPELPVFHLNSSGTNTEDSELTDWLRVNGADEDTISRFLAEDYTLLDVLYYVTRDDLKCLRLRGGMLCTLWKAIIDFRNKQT
Put plainly: ASK1/MAP3K5 kinase assay by Reaction Biology Corp. (headed ASK1 TR-FRET Assay). Format: biochemical. As to conditions: 20 μM myelin basic protein, 10 μM ATP. The method, boiled down:
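Radiometric filter-binding assay with ASK1/MAP3K5, 20 μM MBP substrate and 10 μM ATP plus ^33P-ATP in HEPES pH 7.5 buffer with 1% DMSO. Compounds were preincubated with kinase 20 min, and the reaction then ran 2 hours at room temperature.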

Data set [1] concerns the target T2, ASK1 T838 auto phosphorylation (Homo sapiens, UniProt Q99683).
T2 sequence (Q99683 1-1374): T1 sequence (Q99683 1-1374)
Briefly: ASK1 (AUTO PHOS T838) assay, MSD format, in HEK-293T cells transfected with ASK1-V5. In kind it is cell-based. As to conditions: ASK1 T838 auto phosphorylation in HEK-293T cells, 1 hr compound incubation; class symbols. The method, boiled down: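 HEK-293T cells transiently transfected with full-length ASK1-V5 plasmid were replated, then treated 1 h at 37 °C with a 10-point, 3-fold series from 20 μM. Lysates were probed by MSD with anti-pASK1 T838 and a sulfo-tag secondary, read by chemiluminescence. IC50 came from a 4-parameter fit of normalized % activity.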

Data set [2] is described as follows: In vivo brain penetration, rat Kpuu study. The settings on record: brain and plasma (unbound concentrations), IV infusion for four hours (1 mg/kg) to steady state, Kpuu=Cu,b/Cu,p.
Protocol: Example 113: In Vivo Brain Penetration To evaluate the CNS penetration of the compounds described herein, several compounds were selected for in vivo rat Kpuu studies. In these experiments the compounds are administered via an IV infusion (using N,N-dimethylacetamide:ethanol:1,2-propylene glycol:water in a 1:1:3:5 ratio as the vehicle) in the carotid artery for a period of four hours (1 mg/kg, 0.1 mg/mL) to reach steady state. After this time the plasma and brain concentration levels are quantified, and the values are adjusted by the measured protein binding in plasma and brain homogenate to calculate the Kpuu (see Di, […] . Blood-Brain Barrier in Drug Discovery (Wiley)) according to the equation below. Kpuu=Cu,b/Cu,p Wherein: • Cu,b=Unbound concentration in brain (C×fu,b). (C=concentration at steady state; fu,b=fraction unbound in brain) • And in which: Cu,p=Unbound concentration in plasma (C×fu,p). (C=concentration at steady state; fu,p=fraction unbound in plasma) Plasma and brain protein binding values were generated via the Rapid Equilibrium Dialysis method. The compound of interest was incubated in K2EDTA plasma and brain homogenate (homogenized 1:7 (w:v) in 1×PBS) purchased from BioIVT (Westbury, NY), opposite a buffered compartment of 100 mM Potassium phosphate/150 mM Sodium chloride, pH 7.4, at 1 μM for 4 hr and 6 hr respectively. At the conclusion of incubation samples were taken from both matrix and buffered compartments, matrix-matched using blank buffer and matrix, extracted with acetonitrile, diluted with water, and analyzed utilizing an Agilent RapidFire 365 high-throughput LC coupled with MS/MS detection via an AB Sciex 5500. Free fractions (fu) were then calculated by comparing internal standard/analyte peak-area ratios of matrix and buffered compartments. […] Total drug concentration in plasma and brain tissue was measured via well-established bioanalytical extraction (protein precipitation) and detection methods (LC-MS/MS).

Structures are written as SMILES.

For the compound `COc1nn(-c2ncccc2C)cc1C(=O)Nc1cccc(-c2nncn2C(C)C)n1` [Example 62, N-(6-(4-Isopropyl-4H-1,2,4-triazol-3-yl)pyridin-2-yl)-3-methoxy-1-(3-methylpyridin-2-yl)-1H-pyrazole-4-carboxamide], the results for the IC50 (against ASK1/MAP3K5 (class symbols); in data set [1]) were ≤ 100 nM and ≤ 1000 nM, respectively. The Kp uu at 4 h in data set [2] was determined as 0.16.

On to `CC(C)n1cncc1-c1cccc(NC(=O)c2cn(-c3cncc(O)c3)nc2C(F)F)n1` [Example 99, 3-(Difluoromethyl)-1-(5-hydroxypyridin-3-yl)-N-(6-(1-isopropyl-1H-imidazol-5-yl)pyridin-2-yl)-1H-pyrazole-4-carboxamide], for which the IC50 on ASK1/MAP3K5 (class symbols) is ≤ 100 nM; in data set [1], ≤ 1000 nM.

`COc1nn(-c2cnccn2)cc1C(=O)Nc1cccc(-c2nncn2[C@@H](C)C(F)(F)F)n1` [Example 87, (S)-3-Methoxy-1-(pyrazin-2-yl)-N-(6-(4-(1,1,1-trifluoropropan-2-yl)-4H-1,2,4-triazol-3-yl)pyridin-2-yl)-1H-pyrazole-4-carboxamide]: the IC50 is ≤ 100 nM on ASK1/MAP3K5 (class symbols) and ≤ 1000 nM in data set [1].

`COc1nn(-c2cc(C#N)ccn2)cc1C(=O)Nc1cccc(-c2nncn2C(C)C)n1` [Example 65, 1-(4-Cyanopyridin-2-yl)-N-(6-(4-isopropyl-4H-1,2,4-triazol-3-yl)pyridin-2-yl)-3-methoxy-1H-pyrazole-4-carboxamide]: the IC50 was ≤ 100 nM at ASK1/MAP3K5 (class symbols) and ≤ 1000 nM in data set [1].

In the case of `COC[C@@H](C)n1cnnc1-c1cccc(NC(=O)c2cn(C)nc2OC)n1` (single isomer, unassigned) [Example 34], the IC50 at ASK1/MAP3K5 (class symbols) is 100 to 1000 nM; in data set [1], ≤ 1000 nM.

For the compound `COc1nn(-c2cccnn2)cc1C(=O)Nc1cccc(-c2nncn2C(C)C)n1` [Example 84, N-(6-(4-Isopropyl-4H-1,2,4-triazol-3-yl)pyridin-2-yl)-3-methoxy-1-(pyridazin-3-yl)-1H-pyrazole-4-carboxamide], the results for the IC50 (against ASK1/MAP3K5 (class symbols); in data set [1]) were ≤ 100 nM and ≤ 1000 nM, respectively.

Regarding `COc1nn(C)cc1C(=O)Nc1cccc(-c2nncn2C2(C)COC2)n1` [Example 49, 3-Methoxy-1-methyl-N-(6-(4-(3-methyloxetan-3-yl)-4H-1,2,4-triazol-3-yl)pyridin-2-yl)-1H-pyrazole-4-carboxamide], the values for the IC50 (at ASK1/MAP3K5 (class given in words); in data set [1]) were ≥ 10000 nM and > 10000 nM, respectively.

Consider `COc1nn(C)cc1C(=O)Nc1cccc(-c2nncn2[C@@H]2CCC2(F)F)n1` (single isomer, unassigned) [Example 32], for which the IC50 against ASK1/MAP3K5 (class symbols) is 100 to 1000 nM; in data set [1], ≤ 1000 nM.

For the compound `C=CCn1cc(C(=O)Nc2cccc(-c3nncn3C(C)C)n2)c(OC)n1` [Example 55, 1-Allyl-N-(6-(4-isopropyl-4H-1,2,4-triazol-3-yl)pyridin-2-yl)-3-methoxy-1H-pyrazole-4-carboxamide], the figures for the IC50 (at ASK1/MAP3K5 (class symbols); in data set [1]) were ≤ 100 nM and ≤ 1000 nM, respectively.

Consider `COc1nn(C)cc1C(=O)Nc1cccc(-c2cncn2C2CC2)c1` [Example 101, N-(3-(1-cyclopropyl-1H-imidazol-5-yl)phenyl)-3-methoxy-1-methyl-1H-pyrazole-4-carboxamide], for which the IC50 against ASK1/MAP3K5 (class symbols) was 1000 to 10000 nM; in data set [1], > 10000 nM.

Turning to `COc1nn(CC2CC2)cc1C(=O)Nc1cccc(-c2nncn2[C@@H](C)C(F)(F)F)n1` [Example 48, (S)-1-(Cyclopropylmethyl)-3-methoxy-N-(6-(4-(1,1,1-trifluoropropan-2-yl)-4H-1,2,4-triazol-3-yl)pyridin-2-yl)-1H-pyrazole-4-carboxamide], the IC50 against ASK1/MAP3K5 (class symbols) was ≤ 100 nM; in data set [1] it was ≤ 1000 nM.

Consider `COc1nn(-c2cccnn2)cc1C(=O)Nc1cccc(-c2nncn2[C@H](C)C(F)(F)F)n1` [Example 86, (R)-3-Methoxy-1-(pyridazin-3-yl)-N-(6-(4-(1,1,1-trifluoropropan-2-yl)-4H-1,2,4-triazol-3-yl)pyridin-2-yl)-1H-pyrazole-4-carboxamide], for which the IC50 against ASK1/MAP3K5 (class symbols) lay in the range of 100 to 1000 nM; in data set [1] it was 1000 to 10000 nM.

Turning to `COc1nn(C)cc1C(=O)Nc1cccc(-c2nncn2C2CCN(C(=O)OC(C)(C)C)CC2)n1` [Example 38, tert-Butyl 4-(3-(6-(3-methoxy-1-methyl-1H-pyrazole-4-carboxamido)pyridin-2-yl)-4H-1,2,4-triazol-4-yl)piperidine-1-carboxylate], the IC50 was 100 to 1000 nM at ASK1/MAP3K5 (class symbols) and ≤ 1000 nM in data set [1].

As to `CC(C)n1cnnc1-c1cccc(NC(=O)c2cn(-c3cccnc3)nc2C(F)F)n1` [Example 82, 3-(Difluoromethyl)-N-(6-(4-isopropyl-4H-1,2,4-triazol-3-yl)pyridin-2-yl)-1-(pyridin-3-yl)-1H-pyrazole-4-carboxamide], the IC50 against ASK1/MAP3K5 (class symbols) is ≤ 100 nM; in data set [1], ≤ 1000 nM.

Take `COCc1nn(C)cc1C(=O)Nc1cccc(-c2nncn2[C@@H](C)C(F)(F)F)n1` [Example 14]: the IC50 was 100 to 1000 nM against ASK1/MAP3K5 (class symbols) and ≤ 1000 nM in data set [1].

For `COc1nn(C)cc1C(=O)Nc1cccc(-c2nncn2C2CC(F)(F)C2)n1` [Example 19, N-(6-(4-(3,3-Difluorocyclobutyl)-4H-1,2,4-triazol-3-yl)pyridin-2-yl)-3-methoxy-1-methyl-1H-pyrazole-4-carboxamide], the values for the IC50 (against ASK1/MAP3K5 (class symbols); in data set [1]) were ≤ 100 nM and ≤ 1000 nM, respectively.

Regarding `CCOc1nn(C)cc1C(=O)Nc1cccc(-c2nncn2C(C)C)n1` [Example 3, 3-Ethoxy-N-(6-(4-isopropyl-4H-1,2,4-triazol-3-yl)pyridin-2-yl)-1-methyl-1H-pyrazole-4-carboxamide], the IC50 is ≤ 100 nM against ASK1/MAP3K5 (class symbols) and ≤ 1000 nM in data set [1].

On to `COCCn1cc(C(=O)Nc2cccc(-c3nncn3[C@@H](C)C(F)(F)F)n2)c(C(F)F)n1` [Example 51, (S)-3-(Difluoromethyl)-1-(2-methoxyethyl)-N-(6-(4-(1,1,1-trifluoropropan-2-yl)-4H-1,2,4-triazol-3-yl)pyridin-2-yl)-1H-pyrazole-4-carboxamide], for which the IC50 is ≤ 100 nM against ASK1/MAP3K5 (class symbols) and ≤ 1000 nM in data set [1].

With `Cc1cncc(-n2cc(C(=O)Nc3cccc(-c4cncn4C(C)C)n3)c(C(F)F)n2)c1` [Example 93, 3-(Difluoromethyl)-N-(6-(1-isopropyl-1H-imidazol-5-yl)pyridin-2-yl)-1-(5-methylpyridin-3-yl)-1H-pyrazole-4-carboxamide], the figures for the IC50 (against ASK1/MAP3K5 (class symbols); in data set [1]) were ≤ 100 nM and ≤ 1000 nM, respectively.

As to `COCCn1cc(C(=O)Nc2cccc(-c3cncn3C(C)C)n2)c(OC)n1` [Example 92, N-(6-(1-Isopropyl-1H-imidazol-5-yl)pyridin-2-yl)-3-methoxy-1-(2-methoxyethyl)-1H-pyrazole-4-carboxamide], the figures for the IC50 (at ASK1/MAP3K5 (class symbols); in data set [1]) were ≤ 100 nM and ≤ 1000 nM, respectively.

Regarding `COc1nn(C)cc1C(=O)Nc1cccc(-c2nncn2[C@H]2CCC2(F)F)n1` (single isomer, unassigned) [Example 31], the IC50 on ASK1/MAP3K5 (class symbols) was ≤ 100 nM; in data set [1] it was ≤ 1000 nM.

On to `COc1nn(-c2cnccn2)cc1C(=O)Nc1cccc(-c2nncn2[C@H](C)C(F)(F)F)n1` [Example 88, (R)-3-Methoxy-1-(pyrazin-2-yl)-N-(6-(4-(1,1,1-trifluoropropan-2-yl)-4H-1,2,4-triazol-3-yl)pyridin-2-yl)-1H-pyrazole-4-carboxamide], for which the IC50 fell in the range of 100 to 1000 nM on ASK1/MAP3K5 (class symbols) and 1000 to 10000 nM in data set [1].

For orientation: IC50 means the concentration at which inhibition is half-maximal. A low value points to greater potency.
